Reference: PubChem BioAssay AID1194 (EPA DSSTox, 2008)
Active and inactive are the calls of the source.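 How the source made its calls: active means chemicals rated mutagenic or weakly mutagenic in the Salmonella bacterial test by one literature review, or positive overall by another; inconclusive means no clear call, values can overlap the other calls; inactive means the rest.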

Test system: Salmonella typhimurium Ames mutagenicity, literature compiled
Experiment: DSSTox (CPDBAS) Carcinogenic Potency Database Salmonella Mutagenicity
Method in brief: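 Literature-compiled Salmonella result: chemical called active if rated overall "mutagenic" or "weakly mutagenic" by Zeiger or overall "positive" by the EPA Gene-Tox Program.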

Row | Compound | outcome
1 | Oc1ccc(Cl)cc1Cl | inactive; active
2 | O | inactive
3 | C/C=C/c1ccc2c(c1)OCO2 | inactive; active
4 | C=CC1CC=CCC1 (stereo unspecified) | inactive
5 | CCCCNC(=O)NS(=O)(=O)c1ccc(C)cc1 | inactive; active
6 | CC(=O)Nc1ccc2c(c1)Cc1cc(NC(C)=O)ccc1-2 | active
7 | O=c1ccc2ccccc2o1 | active; inactive
8 | Cc1cc(-c2ccc(N)c(C)c2)ccc1N | active; inactive
9 | ClC(Cl)(Cl)C(Cl)(Cl)Cl | inactive; active
10 | BrCCBr | active
11 | ClC/C=C/CCl | active; inactive
12 | C=CC(=O)OCC | inactive
13 | COc1ccc(C)cc1N | active
14 | S=P(N1CC1)(N1CC1)N1CC1 | active; inactive
15 | CN(C)c1ccc(C(=C2C=CC(=[N+](C)C)C=C2)c2ccc(N(C)C)cc2)cc1 | inactive; active
16 | Nc1cccc(N)c1 | active
17 | Nc1ccc(Cl)cc1N | active; inactive
18 | CC1CN(N=O)CC(C)N1N=O (stereo unspecified) | active
19 | c1ccc(NNc2ccccc2)cc1 | active
20 | CCO | inactive; active
21 | CCC(Br)(CC)C(=O)NC(N)=O | inactive
22 | Nc1ccccc1N | active

Row | Compound | outcome
23 | O=NN1CCNCC1 | active
24 | CCCCCCc1ccc(O)cc1O | inactive; active
25 | OCc1ccco1 | inactive; active
26 | CCCCOC(=O)c1ccc(O)cc1 | inactive; active
27 | Nc1cc(S(=O)(=O)[O-])cc2cc(S(=O)(=O)[O-])c(N=Nc3ccc(-c4ccc(N=Nc5c(S(=O)(=O)[O-])cc6cc(S(=O)(=O)[O-])cc(N)c6c5O)c(O)c4)cc3O)c(O)c12.[Cu].[Cu].[Na+].[Na+].[Na+].[Na+] | inactive; active
28 | Cc1cc(Cc2ccc(N)c(C)c2)ccc1N | active
29 | CC(=O)C(N=Nc1ccc(-c2ccc(N=NC(C(C)=O)C(=O)Nc3ccccc3)c(Cl)c2)cc1Cl)C(=O)Nc1ccccc1 (stereo unspecified) | inactive
30 | COc1ccccc1[N+](=O)[O-] | active
31 | CN(C#N)N=O | active; inactive
32 | O=C1c2ccccc2C(=O)c2ccccc21 | active; inactive
33 | CC(C)=CCl | active; inactive
34 | CC(I)C1OCC(CO)O1 (stereo unspecified) | active
35 | ClC1=C(Cl)C2(Cl)C3C(Cl)C=CC3C1(Cl)C2(Cl)Cl (stereo unspecified) | inactive; active
36 | Nc1ccc(N)c(Cl)c1 | active; inactive
37 | c1ccc2c(c1)Oc1ccccc1O2 | inactive
38 | CC[C@H]1OC(=O)[C@H](C)[C@@H](O[C@H]2C[C@@](C)(OC)[C@@H](O)[C@H](C)O2)[C@H](C)[C@@H](O[C@@H]2O[C@H](C)C[C@H](N(C)C)[C@H]2O)[C@](C)(O)C[C@@H](C)C(=O)[C@H](C)[C@@H](O)[C@]1(C)O | inactive
39 | COc1c(Cl)c(Cl)c(Cl)c(Cl)c1Cl | active; inactive
40 | CCCCOCCO | inactive; active
41 | O=S1(=O)CC=CC1 | inactive; active
42 | CN(CCc1ccccc1)N=O | active
43 | Nc1ccc2c(c1)C(=O)c1ccccc1C2=O | active
44 | CC(C)(c1ccc(O)cc1)c1ccc(O)cc1 | inactive

Row | Compound | outcome
45 | O=C1N(CCO)CCN1/N=C/c1ccc([N+](=O)[O-])o1 | active
46 | CC1(C)S[C@@H]2[C@H](NC(=O)COc3ccccc3)C(=O)N2[C@H]1C(=O)O | inactive; active
47 | CN(C)C(=S)SSC(=S)N(C)C | active
48 | O[C@H]([C@H](O)[C@@H](O)CBr)[C@H](O)CBr | active; inactive
49 | CNNC | active
50 | C[C@@H]1O[C@@H](OC[C@H]2O[C@@H](Oc3c(-c4ccc(O)c(O)c4)oc4cc(O)cc(O)c4c3=O)[C@H](O)[C@@H](O)[C@@H]2O)[C@H](O)[C@H](O)[C@H]1O | active; inactive
51 | Cc1ccccc1N | active
52 | O=CNc1nc(-c2ccc([N+](=O)[O-])o2)cs1 | active; inactive
53 | Nc1ccc2c(n1)[nH]c1ccccc12 | active
54 | NCCS(=O)(=O)O | inactive; active
55 | O=C1CCO1 | active
56 | Nc1cc([N+](=O)[O-])ccc1O | active
57 | O=[N+]([O-])c1ccc(-c2cscn2)o1 | active; inactive
58 | [Cd+2].[Cl-].[Cl-] | inactive; active
59 | COc1cc2c(c3oc(=O)c4c(c13)CC[C@H]4O)[C@@H]1C=CO[C@H]1O2 | active
60 | CN(C)c1ccc(Cc2ccc(N(C)C)cc2)cc1 | active
61 | ClC1(Cl)C2(Cl)C3(Cl)C4(Cl)C(Cl)(Cl)C5(Cl)C3(Cl)C1(Cl)C5(Cl)C24Cl (stereo unspecified) | inactive
62 | CC(=O)Nc1nnc(-c2ccc([N+](=O)[O-])o2)s1 | active
63 | ClCCCl | active
64 | O=NN1CCSCC1 | active; inactive
65 | Nc1nc(N)nc(N)n1 | inactive; active
66 | NNCCc1ccccc1 | active; inactive

Row | Compound | outcome
67 | S=C([S-])NCCNC(=S)[S-].[Zn+2] | inactive; active
68 | O.O.O.O.O.O.O.O=S(=O)([O-])[O-].[Co+2] | active
69 | CC(=O)Nc1ccc(C(=O)CCl)cc1 | active
70 | ClC(Cl)=C(c1ccc(Cl)cc1)c1ccc(Cl)cc1 | inactive; active
71 | NC(=O)N/N=C/c1ccc([N+](=O)[O-])o1 | active
72 | O=P(OC(CCl)CCl)(OC(CCl)CCl)OC(CCl)CCl | active
73 | ClCCl | active; inactive
74 | C=CCc1ccc(OC)c(OC)c1 | inactive; active
75 | O=C(c1ccccc1)C(O)c1ccccc1 (stereo unspecified) | inactive
76 | Clc1cc2c(cc1Cl)Oc1cc(Cl)c(Cl)cc1O2 | inactive; active
77 | Nc1ccc(O)c([N+](=O)[O-])c1 | active
78 | OO | active
79 | O=C(O)C1[O][Sb]2[O]C(=O)C([O]2)C(C(=O)O)[O][Sb]2[O]C(=O)C1[O]2 (stereo unspecified) | inactive
80 | O=[N+]([O-])c1ccc(Oc2ccc(Cl)cc2Cl)cc1 | active
81 | S=c1nc[nH]c2nc[nH]c12 | active
82 | O=c1oc2c(O)c(O)cc3c(=O)oc4c(O)c(O)cc1c4c23 | inactive
83 | CSCCC(N)C(=O)O (stereo unspecified) | inactive; active
84 | O=C1C2(Cl)C3(Cl)C4(Cl)C(Cl)(Cl)C5(Cl)C3(Cl)C1(Cl)C5(Cl)C24Cl (stereo unspecified) | inactive; active
85 | CCCC[C@H](C)[C@@H](OC(=O)C[C@H](CC(=O)O)C(=O)O)[C@@H](C[C@H](C)C[C@@H](O)CCCC[C@@H](O)C[C@H](O)[C@H](C)N)OC(=O)C[C@H](CC(=O)O)C(=O)O | inactive
86 | c1ccc2[nH]c(-c3cscn3)nc2c1 | active
87 | CCOC(=O)CBr | active
88 | O=NN1CCCCCCCCCCCC1 | active; inactive

Row | Compound | outcome
89 | Clc1ccccc1Cl | inactive
90 | CC(=O)Oc1ccccc1C(=O)O | inactive
91 | O=[N+]([O-])c1ccc(-c2nc(N(CCO)CCO)c3ccccc3n2)s1 | inactive; active
92 | C=CC(OC(C)=O)c1ccc2c(c1)OCO2 (stereo unspecified) | active
93 | Oc1ccccc1O | inactive; active
94 | c1ccc2c(c1)[nH]c1cnccc12 | active
95 | CNC[C@H](O)c1ccc(O)c(O)c1 | inactive; active
96 | O=C(O)c1ccccc1-c1c2cc(I)c(=O)c(I)c-2oc2c(I)c(O)c(I)cc12 | inactive
97 | ClC(Cl)C(Cl)(Cl)Cl | inactive
98 | C/C=C/C=C/C(=O)O | inactive
99 | CC(=O)Nc1ccc(N=Nc2cc(C)ccc2O)cc1 | active
100 | FC(Cl)(Cl)Cl | inactive; active
101 | CC(C)Oc1ccc(Nc2ccccc2)cc1 | inactive; active
102 | CNN | active; inactive
103 | O=[N+]([O-])c1ccc2c3c(cccc13)CC2 | active
104 | CC(C)CN(N=O)C(=N)N[N+](=O)[O-] | active
105 | CNC(=O)CSP(=S)(OC)OC | active
106 | Cc1cccc(N=Nc2ccc(N(C)C)cc2)c1 | active; inactive
107 | Cc1c2ccccc2c(C)c2c1ccc1ccccc12 | active
108 | CN(CCCC(=O)O)N=O | inactive
109 | C1CNCCN1 | inactive
110 | CCN(Cc1cccc(S(=O)(=O)O)c1)c1ccc(C(=C2C=CC(=[N+](CC)Cc3cccc(S(=O)(=O)[O-])c3)C=C2)c2ccc(S(=O)(=O)O)cc2)cc1 | inactive; active

Row | Compound | outcome
111 | ClCc1ccccn1 | active
112 | [Na+] | inactive
113 | Cc1cc(O)c2c(c1O)C(=O)C13C(=C2O)C(=O)C2C(O)C1C1C(O)C3C(=O)C3=C(O)c4c(O)cc(C)c(O)c4C(=O)C321 (stereo unspecified) | inactive; active
114 | CCCCOC(=O)COc1ccc(Cl)cc1Cl | inactive; active
115 | ClCCOCCCl | active
116 | CC(=O)Nc1nc(NC(C)=O)nc(-c2ccc([N+](=O)[O-])o2)n1 | active; inactive
117 | CN(C)P(=O)(N(C)C)N(C)C | inactive
118 | [N-]=[N+]=CC(=O)OC[C@H](N)C(=O)O | active
119 | S=C1NCCN1 | active
120 | Cc1ccc2cc3c(ccc4ccccc43)c3c2c1CC3 | active
121 | Nc1ccc(Oc2ccc(N)cc2)cc1 | active
122 | CC1CN(N=O)CC(C)N1C(=O)c1ccccc1 (stereo unspecified) | inactive
123 | CN(C)N=O | active
124 | O=NN1CCCC1 | active
125 | Nc1ccc([N+](=O)[O-])cc1O | active
126 | Nc1ccccc1C(=O)OC/C=C/c1ccccc1 | inactive
127 | Clc1cccc(-c2ccc(Cl)c(Cl)c2Cl)c1Cl | inactive; active
128 | CNc1ccc(N(CCO)CCO)cc1[N+](=O)[O-] | active
129 | CC1CCC(C(C)C)C(O)C1 (stereo unspecified) | inactive; active
130 | NNCCO | active; inactive
131 | Cc1cc(N=Nc2ccccc2C)ccc1N | active
